SMILES strings stand for the structures. ± gives the expanded uncertainty stated by the source.

The nature of one data set: activity coefficient (dimensionless); of the first substance listed, at infinite dilution; xn = mol fraction of the nth substance listed. The note with it: 313 K; Liquid; Chromatography; x1 = 0.
`COCCOC` [1,2-dimethoxyethane] + CCCCn1cc[n+](C)c1.O=S(=O)([O-])O: the activity coefficient stood at 4.76 ± 0.32.

Take `COCCOC` [1,2-dimethoxyethane] + Cn1cc[n+](C[Si](C)(C)C)c1.[Cl-]: the activity coefficient stood at 3.42 ± 0.23.

`C1COCCO1` [1,4-dioxane] + CCCCn1cc[n+](C)c1.O=S(=O)([O-])O: the activity coefficient is 2.72 ± 0.19.

With `C1COCCO1` [1,4-dioxane] + Cn1cc[n+](C[Si](C)(C)C)c1.[Cl-], the activity coefficient worked out at 2.14 ± 0.15.

Take `CC#N` [acetonitrile] + CCCCn1cc[n+](C)c1.O=S(=O)([O-])O: the activity coefficient was 1.23 ± 0.08.

`CC#N` [acetonitrile] + Cn1cc[n+](C[Si](C)(C)C)c1.[Cl-]: the activity coefficient worked out at 0.629 ± 0.043.

In the case of `c1ccccc1` [benzene] + CCCCn1cc[n+](C)c1.O=S(=O)([O-])O, the activity coefficient is 5.11 ± 0.35.

As to `c1ccccc1` [benzene] + Cn1cc[n+](C[Si](C)(C)C)c1.[Cl-], the activity coefficient amounted to 2.44 ± 0.17.

For the compound `CCOC(C)=O` [ethyl acetate] + CCCCn1cc[n+](C)c1.O=S(=O)([O-])O, the activity coefficient was 9.02 ± 0.62.

As for `CCOC(C)=O` [ethyl acetate] + Cn1cc[n+](C[Si](C)(C)C)c1.[Cl-], the activity coefficient came to 4.4 ± 0.3.

Consider `C[N+](=O)[O-]` [nitromethane] + CCCCn1cc[n+](C)c1.O=S(=O)([O-])O, for which the activity coefficient was found to be 0.826 ± 0.053.

Take `C[N+](=O)[O-]` [nitromethane] + Cn1cc[n+](C[Si](C)(C)C)c1.[Cl-]: the activity coefficient was 0.449 ± 0.036.

As for `C1CCOC1` [tetrahydrofuran] + CCCCn1cc[n+](C)c1.O=S(=O)([O-])O, the activity coefficient came out at 5.1 ± 0.35.

`C1CCOC1` [tetrahydrofuran] + Cn1cc[n+](C[Si](C)(C)C)c1.[Cl-]: the activity coefficient was determined as 3.09 ± 0.21.

Consider `Cc1ccccc1` [toluene] + CCCCn1cc[n+](C)c1.O=S(=O)([O-])O, for which the activity coefficient is 8.51 ± 0.58.

With `Cc1ccccc1` [toluene] + Cn1cc[n+](C[Si](C)(C)C)c1.[Cl-], the activity coefficient was 4.1 ± 0.28.

For the compound `ClC(Cl)Cl` [trichloromethane] + Cn1cc[n+](C[Si](C)(C)C)c1.[Cl-], the activity coefficient amounted to 0.112 ± 0.03.

The same data set, now with this note: 333 K; Liquid; Chromatography; x1 = 0.
As to `COCCOC` [1,2-dimethoxyethane] + CCCCn1cc[n+](C)c1.O=S(=O)([O-])O, the activity coefficient was determined as 5.61 ± 0.38.

`COCCOC` [1,2-dimethoxyethane] + Cn1cc[n+](C[Si](C)(C)C)c1.[Cl-]: the activity coefficient stood at 3.49 ± 0.24.

With `C1COCCO1` [1,4-dioxane] + CCCCn1cc[n+](C)c1.O=S(=O)([O-])O, the activity coefficient is 2.78 ± 0.19.

`C1COCCO1` [1,4-dioxane] + Cn1cc[n+](C[Si](C)(C)C)c1.[Cl-]: the activity coefficient turned out to be 1.95 ± 0.13.

As for `CC#N` [acetonitrile] + CCCCn1cc[n+](C)c1.O=S(=O)([O-])O, the activity coefficient turned out to be 1.31 ± 0.09.

As to `CC#N` [acetonitrile] + Cn1cc[n+](C[Si](C)(C)C)c1.[Cl-], the activity coefficient came to 0.659 ± 0.045.

In the case of `c1ccccc1` [benzene] + CCCCn1cc[n+](C)c1.O=S(=O)([O-])O, the activity coefficient was 4.95 ± 0.34.

As for `c1ccccc1` [benzene] + Cn1cc[n+](C[Si](C)(C)C)c1.[Cl-], the activity coefficient amounted to 2.3 ± 0.16.

As to `CCO` [ethanol] + Cn1cc[n+](C[Si](C)(C)C)c1.[Cl-], the activity coefficient was found to be 0.153 ± 0.029.

As for `CCOC(C)=O` [ethyl acetate] + CCCCn1cc[n+](C)c1.O=S(=O)([O-])O, the activity coefficient turned out to be 9.95 ± 0.68.

Regarding `CCOC(C)=O` [ethyl acetate] + Cn1cc[n+](C[Si](C)(C)C)c1.[Cl-], the activity coefficient worked out at 4.27 ± 0.29.

As to `CO` [methanol] + Cn1cc[n+](C[Si](C)(C)C)c1.[Cl-], the activity coefficient is 0.0373.

Turning to `C[N+](=O)[O-]` [nitromethane] + CCCCn1cc[n+](C)c1.O=S(=O)([O-])O, the activity coefficient was determined as 0.771 ± 0.05.

Turning to `C[N+](=O)[O-]` [nitromethane] + Cn1cc[n+](C[Si](C)(C)C)c1.[Cl-], the activity coefficient turned out to be 0.442 ± 0.036.

For `CCCO` [propan-1-ol] + Cn1cc[n+](C[Si](C)(C)C)c1.[Cl-], the activity coefficient came out at 0.0747 ± 0.03.

For `C1CCOC1` [tetrahydrofuran] + CCCCn1cc[n+](C)c1.O=S(=O)([O-])O, the activity coefficient worked out at 5.61 ± 0.38.

As to `C1CCOC1` [tetrahydrofuran] + Cn1cc[n+](C[Si](C)(C)C)c1.[Cl-], the activity coefficient is 2.93 ± 0.2.

Take `Cc1ccccc1` [toluene] + CCCCn1cc[n+](C)c1.O=S(=O)([O-])O: the activity coefficient was found to be 9.22 ± 0.63.

In the case of `Cc1ccccc1` [toluene] + Cn1cc[n+](C[Si](C)(C)C)c1.[Cl-], the activity coefficient came to 3.8 ± 0.26.

`ClC(Cl)Cl` [trichloromethane] + Cn1cc[n+](C[Si](C)(C)C)c1.[Cl-]: the activity coefficient was 0.153 ± 0.029.

Staying with this data set, now noted: 353 K; Liquid; Chromatography; x1 = 0.
As to `COCCOC` [1,2-dimethoxyethane] + CCCCn1cc[n+](C)c1.O=S(=O)([O-])O, the activity coefficient was found to be 7.03 ± 0.48.

In the case of `COCCOC` [1,2-dimethoxyethane] + Cn1cc[n+](C[Si](C)(C)C)c1.[Cl-], the activity coefficient is 3.56 ± 0.24.

Regarding `C1COCCO1` [1,4-dioxane] + CCCCn1cc[n+](C)c1.O=S(=O)([O-])O, the activity coefficient worked out at 2.99 ± 0.2.

For the compound `C1COCCO1` [1,4-dioxane] + Cn1cc[n+](C[Si](C)(C)C)c1.[Cl-], the activity coefficient worked out at 2.07 ± 0.14.

Turning to `CC#N` [acetonitrile] + CCCCn1cc[n+](C)c1.O=S(=O)([O-])O, the activity coefficient was found to be 1.28 ± 0.08.

With `CC#N` [acetonitrile] + Cn1cc[n+](C[Si](C)(C)C)c1.[Cl-], the activity coefficient was determined as 0.695 ± 0.047.

On to `c1ccccc1` [benzene] + CCCCn1cc[n+](C)c1.O=S(=O)([O-])O, for which the activity coefficient turned out to be 5.36 ± 0.37.

Take `c1ccccc1` [benzene] + Cn1cc[n+](C[Si](C)(C)C)c1.[Cl-]: the activity coefficient turned out to be 2.6 ± 0.18.

On to `CCO` [ethanol] + Cn1cc[n+](C[Si](C)(C)C)c1.[Cl-], for which the activity coefficient was found to be 0.158 ± 0.029.

Take `CCOC(C)=O` [ethyl acetate] + CCCCn1cc[n+](C)c1.O=S(=O)([O-])O: the activity coefficient turned out to be 11.7 ± 0.8.

As for `CCOC(C)=O` [ethyl acetate] + Cn1cc[n+](C[Si](C)(C)C)c1.[Cl-], the activity coefficient worked out at 5.14 ± 0.35.

For `CO` [methanol] + Cn1cc[n+](C[Si](C)(C)C)c1.[Cl-], the activity coefficient came out at 0.0421.

`C[N+](=O)[O-]` [nitromethane] + CCCCn1cc[n+](C)c1.O=S(=O)([O-])O: the activity coefficient worked out at 0.83 ± 0.053.

In the case of `C[N+](=O)[O-]` [nitromethane] + Cn1cc[n+](C[Si](C)(C)C)c1.[Cl-], the activity coefficient amounted to 0.477 ± 0.037.

`CCCO` [propan-1-ol] + Cn1cc[n+](C[Si](C)(C)C)c1.[Cl-]: the activity coefficient came out at 0.0878 ± 0.03.

Turning to `C1CCOC1` [tetrahydrofuran] + CCCCn1cc[n+](C)c1.O=S(=O)([O-])O, the activity coefficient came out at 6.6 ± 0.45.

Regarding `C1CCOC1` [tetrahydrofuran] + Cn1cc[n+](C[Si](C)(C)C)c1.[Cl-], the activity coefficient was 3.7 ± 0.25.

On to `Cc1ccccc1` [toluene] + CCCCn1cc[n+](C)c1.O=S(=O)([O-])O, for which the activity coefficient turned out to be 9.7 ± 0.66.

In the case of `Cc1ccccc1` [toluene] + Cn1cc[n+](C[Si](C)(C)C)c1.[Cl-], the activity coefficient is 4.07 ± 0.28.

With `ClC(Cl)Cl` [trichloromethane] + Cn1cc[n+](C[Si](C)(C)C)c1.[Cl-], the activity coefficient stood at 0.2 ± 0.029.

The same data set, now with this note: 373 K; Liquid; Chromatography; x1 = 0.
Turning to `COCCOC` [1,2-dimethoxyethane] + CCCCn1cc[n+](C)c1.O=S(=O)([O-])O, the activity coefficient was 8.44 ± 0.58.

Take `COCCOC` [1,2-dimethoxyethane] + Cn1cc[n+](C[Si](C)(C)C)c1.[Cl-]: the activity coefficient turned out to be 3.89 ± 0.26.

In the case of `C1COCCO1` [1,4-dioxane] + CCCCn1cc[n+](C)c1.O=S(=O)([O-])O, the activity coefficient was determined as 3.36 ± 0.23.

As to `C1COCCO1` [1,4-dioxane] + Cn1cc[n+](C[Si](C)(C)C)c1.[Cl-], the activity coefficient turned out to be 2.13 ± 0.14.

For the compound `CC#N` [acetonitrile] + CCCCn1cc[n+](C)c1.O=S(=O)([O-])O, the activity coefficient was 1.26 ± 0.08.

In the case of `CC#N` [acetonitrile] + Cn1cc[n+](C[Si](C)(C)C)c1.[Cl-], the activity coefficient was 0.712 ± 0.047.

Take `c1ccccc1` [benzene] + CCCCn1cc[n+](C)c1.O=S(=O)([O-])O: the activity coefficient stood at 5.28 ± 0.36.

For the compound `c1ccccc1` [benzene] + Cn1cc[n+](C[Si](C)(C)C)c1.[Cl-], the activity coefficient amounted to 2.94 ± 0.2.

Values taken from the NIST ThermoML archive (doi:10.1016/j.jct.2012.08.022).
